In US11395854B2, “Trialkyl cationic lipids and methods of use thereof” (ARBUTUS BIOPHARMA CORPORATION, priority 2012, dated 2022):

Assays:
[1] = tested on: ApoB expression in the livers (Liver ApoB:GAPD mRNA ratio); experiment: murine ApoB siRNA activity model: ApoB knockdown in liver by nucleic acid-lipid particles containing the cationic lipid; assay type: in vivo, female BALB/c mice
Protocol: This Example compares the effectiveness, in a murine ApoB siRNA activity model, of short chain trialkyl lipids of the present invention with lipids having longer alkyl chains but which are otherwise structurally identical to the short chain trialkyl lipids.
Nucleic acid-lipid particle formulations containing cationic lipids were assessed for their ability to knockdown ApoB expression in the livers of 7 to 9 week old female BALB/c mice. Mice were dosed intravenously (tail vein) in groups of three at either 0.02, 0.03 or 0.05 mg/kg. ApoB knockdown (normalized to the housekeeping gene GAPDH) was measured relative to PBS as a negative control. Each experiment was terminated at 48 hours after dosing.
For comparison to a positive control, the performance of short chain trialkyl lipids of the present invention was compared to a potent cationic lipid, referred to as C2K, that is known to facilitate nucleic acid delivery, in vivo, in nucleic acid-lipid particles (Nature Biotech., Vol 28(2),172 (2010)).

[2] = tested on: ApoB (normalized to the housekeeping gene GAPDH), liver; experiment: murine ApoB model with a different, less potent siRNA sequence; liver ApoB silencing via Quantigene Assay; assay type: in vivo, Mice; conditions: 0.04 mg/kg siRNA; for ApoB gene silencing relative to PBS control (Liver ApoB:GAPD mRNA ratio): intravenous (tail vein), 48 h after dosing, different, less potent siRNA sequence
Protocol: In another experiment, two more lipids of the present invention (Compounds 62 and 71) were formulated into lipid nanoparticles with siRNA to target ApoB. Mice were dosed intravenously (tail vein) and sacrificed 48 h after dosing. Livers were harvested and homogenized, and the level of ApoB silencing (normalized to the housekeeping gene GAPDH) then measured via Quantigene Assay. The results are shown in Table 6 and are expressed as a percentage, relative to a PBS-treated negative control group. […] Inter-experiment comparisons are therefore not possible: […]

[3] = injected dose of 0.03 mg/kg, separate experiment

## CCCCC/C=C\CCCC(CCC/C=C\CCCCC)C(CCC/C=C\CCCCC)OC(=O)CCCN(C)C (centres unmarked) [Compound 9]
[1]; injected dose of 0.02 mg/kg
  activity compared to C2K: greater activity than C2K

## CCCCC/C=C\CCCC(CCC/C=C\CCCCC)C(CCC/C=C\CCCCC)OC(=O)CCCCCN(C)C (centres unmarked) [Compound 11, (6Z,16Z)-12-((Z)-dec-4-enyl)docosa-6,16-dien-11-yl 6-(dimethylamino)hexanoate]
[1]; [3]
  activity compared to C2K: greater activity than C2K

## CCCCC/C=C\CCCC(CCC/C=C\CCCCC)C(CCC/C=C\CCCCC)OC(=O)CCCCN(C)C (centres unmarked) [Compound 13, (6Z,16Z)-12-((Z)-dec-4-enyl)docosa-6,16-dien-11-yl 5-(dimethylamino)pentanoate]
[1]; injected dose of 0.02 mg/kg
  activity compared to C2K: greater activity than C2K
[1]; [3]
  activity compared to C2K: greater activity than C2K

## CCCCC/C=C\CCCC(CCC/C=C\CCCCC)C(CC/C=C\CCCCC)OC(=O)CCCCN(C)C (centres unmarked) [Compound 19, (6Z,15Z)-11-((Z)-dec-4-enyl)henicosa-6,15-dien-10-yl 5-(dimethylamino)pentanoate]
[1]; injected dose of 0.02 mg/kg
  activity compared to C2K: greater activity than C2K
[1]; [3]
  activity compared to C2K: greater activity than C2K

## CCCCC/C=C\CCCC(CCC/C=C\CCCCC)C(CC/C=C\CCCCC)OC(=O)CCCN(C)C (centres unmarked) [Compound 22, (6Z,15Z)-11-((Z)-dec-4-enyl)henicosa-6,15-dien-10-yl 4-(dimethylamino)butanoate]
[1]; injected dose of 0.02 mg/kg
  activity compared to C2K: greater activity than C2K

## CCCCC/C=C\CCCC(CCC/C=C\CCCCC)C(CCC/C=C\CCCCC)OC(=O)N(C)CCCN(C)C (centres unmarked) [Compound 23, (6Z,16Z)-12-((Z)-dec-4-enyl)docosa-6,16-dien-11-yl 3-(dimethylamino)propyl(methyl)carbamate]
[1]; [3]
  activity compared to C2K: greater activity than C2K

## CCCCC/C=C\CCCC(CCC/C=C\CCCCC)C(CCC/C=C\CCCCC)OC(=O)NCCN(C)C (centres unmarked) [Compound 25, (6Z,16Z)-12-((Z)-dec-4-enyl)docosa-6,16-dien-11-yl 2-(dimethylamino)ethylcarbamate]
[1]; [3]
  activity compared to C2K: greater activity than C2K

## CCCCC/C=C\CCCC(CCC/C=C\CCCCCC)C(CC/C=C\CCCCC)OC(=O)NCCCN(C)C (centres unmarked) [Compound 27, (6Z,15Z)-11-((Z)-dec-4-en-1-yl)docosa-6,15-dien-10-yl (3-(dimethylamino)propyl)carbamate]
[1]; injected dose of 0.02 mg/kg
  activity compared to C2K: greater activity than C2K

## CCCCC/C=C\CCC(CC/C=C\CCCCC)C(CC/C=C\CCCCC)OC(=O)CCCN(C)C (centres unmarked) [Compound 40]
[1]; injected dose of 0.02 mg/kg
  activity compared to C2K: greater activity than C2K

## CCCCC/C=C\CCCC(OC(=O)CCCCN(C)C)C(CCCCCCCCCC)CCCCCCCCCC (centres unmarked) [Compound 50, (Z)-12-decyldocos-6-en-11-yl 5-(dimethylamino)pentanoate]
[1]; injected dose of 0.02 mg/kg
  activity compared to C2K: greater activity than C2K

## CCCCC/C=C\CCCC(CCC/C=C\CCCCC)C(CCC/C=C\CCCCC)OCCCCN(C)C (centres unmarked) [Compound 62, 4-(((6Z,16Z)-12-((Z)-dec-4-en-1-yl)docosa-6,16-dien-11-yl)oxy)-N,N-dimethylbutan-1-amine]
[2]
  activity compared to the DLin-MP-DMA control: significantly more active
  ApoB gene silencing relative to PBS control (Liver ApoB:GAPD mRNA ratio): −56%

## CC(C)CCCC(C)CCC(CCC(C)CCCC(C)C)C(CCC(C)CCCC(C)C)OC(=O)CCCCN(C)C (centres unmarked) [Compound 71, 10-(3,7-dimethyloctyl)-2,6,13,17-tetramethyloctadecan-9-yl 5-(dimethylamino)pentanoate]
[2]
  ApoB gene silencing relative to PBS control (Liver ApoB:GAPD mRNA ratio): −29%

## CCCCC/C=C\C/C=C\CCCCCCCCC(CCCCCCCC/C=C\C/C=C\CCCCC)OCCCN(C)C [DLin-MP-DMA, reference compound]
[1]; three separate experiments, 0.03 or 0.05 mg/kg
  effectiveness compared to C2K: more effective than C2K
[2]
  ApoB gene silencing relative to PBS control (Liver ApoB:GAPD mRNA ratio): −32%
